# Results published in patent US20090246292A1, “ANTIMICROBIAL FORMULATIONS COMPRISING A QUINONE AND A COPPER SALT” (priority 2006, published 2009).
# How the values were obtained:
# P. acnes NCTC 737 [1] = assay: Minimum inhibitory concentration (MIC) assay; assay type: cell-based, Propionibacterium acnes
# Text: (a) Minimum Inhibitory Concentration (MIC) Assay
# The culture media were as described above.
# The assays included both negative (culture medium with no micro-organisms) and positive (culture medium plus diluting solvent plus micro-organism) controls.
# S. aureus ATCC 29213 [2] = assay: Minimum bactericidal concentration (MBC) assay; assay type: cell-based, Staphylococcus aureus
# Procedure: (b) Minimum Bactericidal Concentration (MBC) Assay
# Following incubation they were examined visually for bacterial growth.
# P. acnes PRP-003 [3] = details: P. acnes PRP-003 (resistance Tet); agar dilution
# Procedure: (§1) This is a standard international method for quantitatively assessing the antimicrobial activity of a compound in a solid medium. […] A set amount of these antimicrobial stock solutions was then added to molten agar medium (ca. 55° C.), mixed thoroughly, poured into sterile Petri dishes and allowed to cool/set. The culture medium was as described above.
# (§2) A Multipoint™ Inoculator (AQS Manufacturing Ltd, UK) was used to inoculate the plates by spotting the inocula onto the surface of the agar, delivering approximately 1 to 2 μl per spot (yielding 10^5 CFU (colony forming units) per spot).
# (§3) The plate(s) were then incubated under the conditions described above, following which they were examined visually for signs of bacterial growth. The MIC value was ascertained when there was a marked reduction in, or total loss of, growth on the test plate at the lowest concentration as compared to that of the growth on the control plate.
# P. acnes PRP-010 [4] = details: P. acnes PRP-010 (resistance MLSK); agar dilution
# Procedure: as §1, §2, §3
# P. acnes PRP-023 = P. acnes PRP-023 (resistance MLSK); agar dilution
# Procedure: as §1, §2, §3
# P. acnes PRP-026 [5] = details: P. acnes PRP-026 (resistance MLS); agar dilution
# Procedure: as §1, §2, §3
# P. acnes PRP-046 = P. acnes PRP-046 (resistance None); agar dilution
# Procedure: as §1, §2, §3
# P. acnes PRP-059 [6] = details: P. acnes PRP-059 (resistance MLS); agar dilution
# Procedure: as §1, §2, §3
# P. acnes PRP-101 = P. acnes PRP-101 (resistance Tet/MLS); agar dilution
# Procedure: as §1, §2, §3
# P. granulosum NCTC 11865 [7] = details: P. granulosum NCTC 11865 (resistance None); agar dilution
# Procedure: as §1, §2, §3
# P. granulosum PRP-006 = P. granulosum PRP-006 (resistance MLS); agar dilution
# Procedure: as §1, §2, §3
# P. granulosum PRP-043 [8] = details: P. granulosum PRP-043 (resistance MLS); agar dilution
# Procedure: as §1, §2, §3
# P. granulosum NCTC 11865 [9] = assay: Disc diffusion assay (DDA), also supplemented; assay type: cell-based; details: 200 μg per disc
# Procedure: (§4) The propionibacteria were cultured and maintained on Wilkins-Chalgren Anaerobe Medium (agar and broth) at pH 6.0; all cultures were incubated anaerobically at 37° C. for 72 hours.
# (§5) A sterile paper disc was impregnated with a sample of the test compound in a suitable solvent and 30 minutes allowed for the solvents to evaporate (where possible). The disc was then placed on an agar plate onto which the test micro-organism had been inoculated. The plate was then incubated under the conditions described above, following which it was examined visually for signs of bacterial growth. […] The diameter of this zone of “inhibition” was measured using a ProtoCOL™ automated zone sizer (Synbiosis, Cambridge, UK).
# (§6) For assays using Propionibacterium spp. strains the supplements used in the examples below were lipid (either Tween™ 80 or triolein, both at 1% v/v) and sodium chloride (100 mM).
# P. acnes PRP-003 [10] = assay: Disc diffusion assay (DDA), also supplemented; assay type: cell-based, Propionibacterium acnes; details: 200 μg per disc
# Procedure: as §4, §5, §6
# P. granulosum PRP-005 = assay: Disc diffusion assay (DDA), also supplemented; assay type: cell-based; details: 200 μg per disc
# Procedure: as §4, §5, §6
# P. acnes PRP-008 = assay: Disc diffusion assay (DDA), also supplemented; assay type: cell-based, Propionibacterium acnes; details: 200 μg per disc
# Procedure: as §4, §5, §6
# P. acnes PRP-010 [11] = assay: Disc diffusion assay (DDA), also supplemented; assay type: cell-based, Propionibacterium acnes; details: 200 μg per disc
# Procedure: as §4, §5, §6
# P. acnes PRP-026 [12] = assay: Disc diffusion assay (DDA), also supplemented; assay type: cell-based, Propionibacterium acnes; details: 200 μg per disc
# Procedure: as §4, §5, §6
# P. acnes PRP-039 = assay: Disc diffusion assay (DDA), also supplemented; assay type: cell-based, Propionibacterium acnes; details: 200 μg per disc
# P. granulosum PRP-043 [13] = assay: Disc diffusion assay (DDA), also supplemented; assay type: cell-based; details: 200 μg per disc
# Procedure: as §4, §5, §6
# P. granulosum PRP-044 = assay: Disc diffusion assay (DDA), also supplemented; assay type: cell-based; details: 200 μg per disc
# Procedure: as §4, §5, §6
# P. acnes PRP-053 = assay: Disc diffusion assay (DDA), also supplemented; assay type: cell-based, Propionibacterium acnes; details: 200 μg per disc
# Procedure: as §4, §5, §6
# P. acnes PRP-059 [14] = assay: Disc diffusion assay (DDA), also supplemented; assay type: cell-based, Propionibacterium acnes; details: 200 μg per disc
# Procedure: as §4, §5, §6
# P. acnes NCTC 737 [15] = assay: Synergy disc diffusion assay (SDDA), also supplemented
# Procedure: as §4
# (e) Synergy Disc Diffusion Assay (SDDA)
# (§7) This is a variation on the DDA method, in which two compounds are tested together for their combined antimicrobial activity.
# (§8) Two test compounds A and B were placed on a single paper disc and the above described DDA procedure repeated.
# (f) Supplemented Disc Diffusion Assays
# as §6
# S. aureus ATCC 29213 [16] = assay: as above
# Procedure: (e) Synergy Disc Diffusion Assay (SDDA)
# as §7, §8
# (f) Supplemented Disc Diffusion Assays
# For assays using S. aureus ATCC 29213 the supplements used were sodium chloride (100 mM), lipid (Tween™ 80 at 1% v/v) and horse serum (5% v/v).
# 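Throughout, for SS SDDA area increase: disc diffusion on Mueller-Hinton agar at pH 7.2, aerobic incubation at 37 °C lasting 19-20 h, two compounds assessed jointly for combined antimicrobial effect.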
# 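Throughout, for SS SDDA increase: disc diffusion on Mueller-Hinton agar at pH 7.2, aerobic incubation at 37 °C lasting 19-20 h, two compounds assessed jointly for combined antimicrobial effect.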
# 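Throughout, for SS SDDA with TBHQ: disc diffusion on Mueller-Hinton agar at pH 7.2, aerobic incubation at 37 °C lasting 19-20 h, two compounds assessed jointly for combined antimicrobial effect.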
smiles,measurement,setting,value
O.O.O.O.O.O=S(=O)([O-])[O-].[Cu+2] [Copper (II) sulphate pentahydrate],MIC,P. acnes NCTC 737 [1],15.6 µg/mL
same,MIC/MBC ratio,P. acnes NCTC 737 [1],0.125
same,MBC,S. aureus ATCC 29213 [2],>250 µg/mL
same,MIC,P. acnes PRP-003 [3],7.8 µg/mL
same,MIC,P. acnes PRP-010 [4],7.8 µg/mL
same,MIC,P. acnes PRP-023,7.8 µg/mL
same,MIC,P. acnes PRP-026 [5],7.8 µg/mL
same,MIC,P. acnes PRP-046,7.8 µg/mL
same,MIC,P. acnes PRP-059 [6],7.8 µg/mL
same,MIC,P. acnes PRP-101,7.8 µg/mL
same,MIC,P. granulosum NCTC 11865 [7],7.8 µg/mL
same,MIC,P. granulosum PRP-006,62.5 µg/mL
same,MIC,P. granulosum PRP-043 [8],7.8 µg/mL
same,DDA + salt,P. granulosum NCTC 11865 [9],48.34 mm
same,DDA + lipid,P. granulosum NCTC 11865 [9]; 1% (v/v) triolein,41.65 mm
same,DDA,P. granulosum NCTC 11865 [9]; single replicate,48.34 mm
same,DDA,P. granulosum NCTC 11865 [9]; Table 12 series,53.32 mm
same,DDA + salt,P. acnes PRP-003 [10],51.99 mm
same,DDA + lipid,P. acnes PRP-003 [10]; 1% (v/v) triolein,45.91 mm
same,DDA,P. acnes PRP-003 [10]; single replicate,52.60 mm
same,DDA,P. acnes PRP-003 [10]; Table 12 series,50.18 mm
same,DDA + salt,P. granulosum PRP-005,29.19 mm
same,DDA + lipid,P. granulosum PRP-005; 1% (v/v) triolein,24.32 mm
same,DDA,P. granulosum PRP-005; single replicate,24.02 mm
same,DDA,P. granulosum PRP-005; Table 12 series,22.48 mm
same,DDA + salt,P. acnes PRP-008,51.99 mm
same,DDA + lipid,P. acnes PRP-008; 1% (v/v) triolein,48.65 mm
same,DDA,P. acnes PRP-008; single replicate,52.29 mm
same,DDA,P. acnes PRP-008; Table 12 series,43.70 mm
same,DDA + salt,P. acnes PRP-010 [11],62.33 mm
same,DDA + lipid,P. acnes PRP-010 [11]; 1% (v/v) triolein,46.82 mm
same,DDA,P. acnes PRP-010 [11]; single replicate,63.24 mm
same,DDA,P. acnes PRP-010 [11]; Table 12 series,46.73 mm
same,DDA + salt,P. acnes PRP-026 [12],52.90 mm
same,DDA + lipid,P. acnes PRP-026 [12]; 1% (v/v) triolein,53.21 mm
same,DDA,P. acnes PRP-026 [12]; single replicate,51.08 mm
same,DDA,P. acnes PRP-026 [12]; Table 12 series,56.14 mm
same,DDA + salt,P. acnes PRP-039,61.72 mm
same,DDA + lipid,P. acnes PRP-039; 1% (v/v) triolein,59.29 mm
same,DDA,P. acnes PRP-039; single replicate,53.51 mm
same,DDA,P. acnes PRP-039; Table 12 series,56.35 mm
same,DDA + salt,P. granulosum PRP-043 [13],50.17 mm
same,DDA + lipid,P. granulosum PRP-043 [13]; 1% (v/v) triolein,41.35 mm
same,DDA,P. granulosum PRP-043 [13]; single replicate,46.82 mm
same,DDA,P. granulosum PRP-043 [13]; Table 12 series,56.56 mm
same,DDA + salt,P. granulosum PRP-044,31.92 mm
same,DDA + lipid,P. granulosum PRP-044; 1% (v/v) triolein,26.45 mm
same,DDA,P. granulosum PRP-044; single replicate,27.36 mm
same,DDA,P. granulosum PRP-044; Table 12 series,27.81 mm
same,DDA + salt,P. acnes PRP-053,54.42 mm
same,DDA + lipid,P. acnes PRP-053; 1% (v/v) triolein,51.08 mm
same,DDA,P. acnes PRP-053; single replicate,43.78 mm
same,DDA,P. acnes PRP-053; Table 12 series,50.18 mm
same,DDA + salt,P. acnes PRP-059 [14],55.33 mm
same,DDA + lipid,P. acnes PRP-059 [14]; 1% (v/v) triolein,48.95 mm
same,DDA,P. acnes PRP-059 [14]; single replicate,48.04 mm
same,DDA,P. acnes PRP-059 [14]; Table 12 series,50.70 mm
same,SDDA area increase,P. acnes NCTC 737 [15],108.63%
same,SDDA increase,P. acnes NCTC 737 [15],22.11 mm
same,SDDA with TBHQ,P. acnes NCTC 737 [15],71.86 mm
same,SL SDDA area increase,P. acnes NCTC 737 [15],64.85%
same,SL SDDA increase,P. acnes NCTC 737 [15],14.18 mm
same,SL SDDA with TBHQ,P. acnes NCTC 737 [15],64.14 mm
same,SDDA area increase,S. aureus ATCC 29213 [16],88.33%
same,SDDA increase,S. aureus ATCC 29213 [16],15.05 mm
same,SDDA with TBHQ,S. aureus ATCC 29213 [16],55.47 mm
same,SS SDDA area increase,S. aureus ATCC 29213 [16],10.90%
same,SS SDDA increase,S. aureus ATCC 29213 [16],2.32 mm
same,SS SDDA with TBHQ,S. aureus ATCC 29213 [16],46.00 mm
